Results on 30 molecules are retold here after patent US20160046616A1, “NRF2 SMALL MOLECULE INHIBITORS FOR CANCER THERAPY” (THE JOHNS HOPKINS UNIVERSITY, priority 2013, published 2016).

Format in all cases: cell-based
Test [1] has as its system H1437 NRF2-ARE-Fluc stable cell line. The experiment in a line: H1437 Nrf2 assay: NRF2-ARE firefly luciferase reporter gene assay. Conditions: Homo sapiens, NCI-H1437, H1437 NRF2-ARE-Fluc stable cell line; read-out: Potency of inhibition, H1437. A general note: Reporter assays use an easily measured gene product as a stand-in for the process of interest.
Test [2] concerns A549 NRF2-ARE-Fluc stable cell line. In words: A549 Nrf2 assay: NRF2-ARE firefly luciferase reporter gene assay. To be noted: Homo sapiens, read-out: Potency of inhibition, A549. In short, it runs like this:
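A549 cells (Keap1 loss-of-function, constitutive NRF2) stably carrying ARE-driven firefly luciferase; compound treatment 18–24 h at 37 °C, 0.46% DMSO final.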

Test [3] relates to H838 NRF2-ARE-Fluc stable cell line. The experiment in a line: H838 Nrf2 assay: NRF2-ARE firefly luciferase reporter gene assay. Conditions: Homo sapiens, NCI-H838, read-out: Potency of inhibition, H838. The source says:
H838 is a NSCLC cell line with LOF Keap1 activity and constitutive translocation of NRF2 into the nucleus. A firefly luciferase reporter construct driven by a minimal promoter of NRF2-specific ARE is stably expressed in the H838 cells. This cell line was used as a confirmation assay to make sure hits identified from primary screening and that passed counterscreen assays worked in different cell types with a constitutively active NRF2 pathway (deficiency in Keap1).
This assay was very similar to the primary assay except that the cell line was changed. […] The final concentration of DMSO was maintained at 0.46%. Control compounds Budesonide and Staurosporine were both added at a concentration of 2 mM and Budesonide was also added as a 1:10 titration, starting at 200 μM, to achieve dose-response. After an 18-24 hour incubation at 37° C., 95% humidity, and 5% CO2, 1 μL of 5× CellTiter-Fluor non-lytic cell viability assay reagent (Promega, Madison Wis.) was added into the each well of the plates. The plates were then incubated for 30 minutes at room temperature before they were read on a ViewLux plate imager (Perkin Elmer, Waltham Mass.) using an excitation wavelength of 405 nm and an emission wavelength of 525 nm.
Representative compounds were assayed to assess the potency of inhibition in an A549 NRF2-ARE-Fluc stable cell line (A549 Nrf2 assay), in an H838 NRF2-ARE-Fluc stable cell line (H838 Nrf2 assay), and in an H1437 NRF2-ARE-Fluc stable cell line (H1437 Nrf2 assay) (see Table 3).

In the case of `O=C(Nc1ccc(S(=O)(=O)N2CCOCC2)cc1)c1ccc(CN2CCc3ccccc3C2)cc1` [Compound 48], the values for the IC50 in test [1], in test [2] and in test [3] were 5 to 25 µM, below 5 µM and above 25 µM, respectively.
The corresponding values for `COc1ccccc1C(=O)Nc1nc(-c2ccc(S(=O)(=O)N3CCOCC3)cc2)cs1` [Compound 47] are below 5 µM, below 5 µM and below 5 µM.
In the case of `CCN(CC)S(=O)(=O)c1cccc(NC(=O)CNc2cccc(S(=O)(=O)N3CCOCC3)c2)c1` [Compound 49], the values for the IC50 in test [1], in test [2] and in test [3] were below 5 µM, below 5 µM and above 25 µM, respectively.
For `Cc1ccc(C(=O)Nc2nc(-c3ccccn3)cs2)cc1S(=O)(=O)N1CCOCC1` [Compound 50], the IC50 in test [1] is above 25 µM; in test [2], below 5 µM; in test [3], above 25 µM.
As for `Cc1ccccc1C(=O)N1CCc2cc(-c3nc(NC(=O)Cc4ccc(OCCOCCOCCNC(=O)CCCC[C@@H]5SC[C@@H]6NC(=O)N[C@@H]65)cc4)sc3C)ccc21` [Compound 241], the IC50 in test [1] is 5 to 25 µM; in test [2] it was above 25 µM.
Turning to `Cc1ccccc1Cc1cnc(NC(=O)c2ccn(-c3ccccc3)n2)s1` [Compound 214], the IC50 in test [1] and in test [2] was 5 to 25 µM throughout.
Consider `O=C(Nc1ncc(Cc2ccccc2Cl)s1)c1ccn(-c2ccccc2)n1` [Compound 216], for which the IC50 in test [1] and in test [2] was 5 to 25 µM in each case.
Consider `Cc1cccc(C(=O)N2CCc3cc(-c4nc(NC(=O)Cc5ccc6c(c5)OCO6)sc4C)ccc32)c1` [Compound 29], for which the IC50 was 5 to 25 µM in test [1] and above 25 µM in test [2].
The corresponding values for `Cc1sc(NC(=O)Cc2ccc3c(c2)OCO3)nc1-c1ccc2c(c1)CCN2C(=O)C1CCCCC1` [Compound 25] are below 5 µM and 5 to 25 µM.
For `O=C(Nc1ccc(S(=O)(=O)N2CCOCC2)cc1)c1ccc(CN2CCCC(c3ccccc3)C2)cc1` (stereo not shown) [Compound 207] the same measures were 5 to 25 µM and 5 to 25 µM.
For `Cc1ccccc1C(=O)N1CCc2cc(-c3nc(NC(=O)CC4CCOCC4)sc3C)ccc21` [Compound 84] the same measures were 5 to 25 µM and 5 to 25 µM.
With `O=C(Nc1ccc(OC(F)(F)F)cc1)c1ccc(CN2CCc3ccccc3C2)cc1` [compound 178], the IC50 in test [1] and in test [2] was below 5 µM in each case.
In the case of `Nc1ccc(-c2cccc(NC(=O)Cc3ccccc3)n2)cc1` [Compound 80, N-(6-(4-aminophenyl)pyridin-2-yl)-2-phenylacetamide], the IC50 in test [1] and in test [2] was above 25 µM in each case.
`O=C(Nc1ncc(Cc2ccc(C(F)(F)F)cc2)s1)c1cccc(-c2ccccc2)n1` [Compound 61]: the IC50 in test [1] was above 25 µM; in test [2], below 5 µM.
For `Cc1sc(NC(=O)Cc2ccc3c(c2)OCO3)nc1-c1ccc2c(c1)CCN2C(=O)c1cnoc1C(C)C` [Compound 158] the same measures were above 25 µM and below 5 µM.
For `COc1ccc(CC(=O)Nc2nc(-c3ccc4c(c3)CCN4C(=O)c3ccc(C4(C(F)(F)F)N=N4)cc3)c(C)s2)cc1` [Compound 233] the same measures were 5 to 25 µM and 5 to 25 µM.
With `COc1ccc(CC(=O)Nc2nc(-c3ccc4c(c3)CCN4C(=O)C3CC3)c(C)s2)cc1` [Compound 195], the IC50 in test [1] is 5 to 25 µM; in test [2], below 5 µM.
The corresponding values for `Cc1ccccc1C(=O)N1CCc2cc(N3CCC(NC(=O)Cc4ccccc4)C3)ccc21` (stereo not shown) [Compound 96] are 5 to 25 µM and 5 to 25 µM.
The corresponding values for `O=C(Nc1ncc(Cc2ccc(C(F)(F)F)cc2)s1)c1ccn(-c2cccnc2)n1` [Compound 175] are 5 to 25 µM and 5 to 25 µM.
In the case of `CCOC(=O)N1CCN(CC(=O)Nc2nc(-c3ccc4c(c3)CCN4C(=O)c3ccccc3C)c(C)s2)CC1` [Compound 228], the IC50 in test [1] and in test [2] was below 5 µM in each case.
Turning to `O=C(Cc1ccccc1)Nc1cccc(-c2ccc(N3CCOCC3)cc2)n1` [Compound 78], the IC50 in test [1] and in test [2] was above 25 µM throughout.
Regarding `O=C(Nc1cccc(S(=O)(=O)N2CCOCC2)c1)c1ccc(CN2CCc3ccccc3C2)cc1` [compound 119], the IC50 in test [1] was above 25 µM; in test [2] it was 5 to 25 µM.
For `COc1cccc(CC(=O)Nc2nc(-c3ccc4c(c3)CCN4C(=O)c3ccccc3C)c(C)s2)c1` [Compound 6] the same measures were below 5 µM and below 5 µM.
As to `O=C(Nc1nc2cc(C(F)(F)F)ccc2s1)c1ccc(-c2cccc([N+](=O)[O-])c2)o1` [Compound 111], the IC50 in test [1] and in test [2] was above 25 µM each time.
For `O=C(Nc1ncc(Cc2ccc(C(F)(F)F)cc2)s1)c1cn(-c2ccccc2)cn1` [Compound 164], the IC50 is above 25 µM in test [1] and below 5 µM in test [2].
For `CC(c1ccc(C(=O)Nc2ccc(S(=O)(=O)N3CCOCC3)cc2)cc1)N1CCc2ccccc2C1` (stereo not shown) [compound 226] the same measures were below 5 µM and below 5 µM.
The corresponding values for `O=C(CCCc1ccccc1)Nc1ncc(Cc2ccc(C(F)(F)F)cc2)s1` [Compound 108] are above 25 µM and above 25 µM.
The corresponding values for `Cc1onc(-c2ccccc2)c1C(=O)N1CCc2cc(-c3nc(NC(=O)Cc4ccc5c(c4)OCO5)sc3C)ccc21` [Compound 160] are above 25 µM and above 25 µM.
On to `COc1ccc(CC(=O)Nc2nc(-c3ccc4c(c3)CCN4C(=O)c3ccccc3C)c(C)s2)cc1` [Compound 7], for which the IC50 in test [1] and in test [2] was below 5 µM in each case.
`Cc1ccccc1C(=O)N1CCc2cc(-c3nc(NC(=O)CC4CCCCC4)sc3C)ccc21` [Compound 79]: the IC50 in test [1] is 5 to 25 µM; in test [2], below 5 µM.
